Experimental data as given in patent publication US20230077704A1, “APPLICATION OF NITAZOXANIDE AND ACTIVE FORM THEREOF, TIZOXANIDE, IN TREATMENT OF SARS-COV-2 INFECTION” (priority 2020, published 2023).
“Also recorded” adds a separate entry of the source. Where two headings read alike, the source gives them in different places.

Key:
Vero-E6 cells = test: Cytotoxicity test of drugs, CCK-8 kit; type: cell-based; details: 48 hours; for Cell viability (% of vehicle control): Vero-E6 cells
Method: The cytotoxicity test of drugs was carried out by using CCK-8 kit (Beyotime). Specific steps were as follows:
(1) 1×10^4 Vero-E6 cells (ATCC) were inoculated in a 96-well plate and cultured at 37° C. for 8 hours.
(2) The drug was diluted with DMSO to an appropriate concentration of mother solution, and then diluted with MEM (purchased from Gibco company, Catalog No. 10370021) medium containing 2% FBS (purchased from Gibco company, Catalog No. 16000044) to the same concentration as that for the drug treatment. The original medium in the 96-well plate was discarded, 100 μL of the drug-containing MEM medium was taken and added to the cells, and three replicate wells were set for each concentration. A vehicle control (adding DMSO and medium to cells in wells, without adding drug) and a blank control (adding DMSO and medium to the wells, without cells) were set up. After the drug was added, the cells were cultured at 37° C. for 48 hours.
(3) 20 μL of CCK-8 solution (Beyotime) was added to the well to be tested, mixed gently without generating bubbles, and cultured subsequently at 37° C. for 2 hours. OD450 was read on a microplate reader (purchased from Molecular Devices, model: SpectraMax M5), and the cell viability was calculated:
Cell viability (%)=(A(drug treatment group)−A(blank control))/(A(vehicle control)−A(blank control))×100%
Wherein, A was the reading of the microplate reader.

rotavirus = details: clinical trials; cited from earlier work
[1] = test system: SARS-CoV-2 (2019-nCoV) virus; type: cell-based; details: for Copy number of virus genome: 100TCID50, 48 hours, supernatant
influenza = details: 600 mg twice daily for five days, adults and adolescents; cited from earlier work

CC(=O)Oc1ccccc1C(=O)Nc1ncc([N+](=O)[O-])s1 [nitazoxanide, 2-(acetyloxy)-N-(5-nitro-2-thiazolyl) benzamide]
Cell viability (% of vehicle control) (Vero-E6 cells; 0.14 μM): 98.78 % of vehicle control | Cell viability (% of vehicle control) (Vero-E6 cells; 0.41 μM): 101.40 % of vehicle control | Cell viability (% of vehicle control) (Vero-E6 cells; 1.23 μM): 98.54 % of vehicle control | Cell viability (% of vehicle control) (Vero-E6 cells; 3.70 μM): 96.47 % of vehicle control | Cell viability (% of vehicle control) (Vero-E6 cells; 11.11 μM): 96.03 % of vehicle control | Cell viability (% of vehicle control) (Vero-E6 cells; 33.33 μM): 93.58 % of vehicle control | Cell viability (% of vehicle control) (Vero-E6 cells; 100 μM): 93.29 % of vehicle control | Toxic effect on the cells (cytotoxicity) (Vero-E6 cells; all test concentrations): no cytotoxicity was observed; also recorded: no toxic effect on the cells | Treatment of diarrhea in children caused by rotavirus infection (rotavirus): can effectively treat diarrhea | Copy number of virus genome ([1]; 0.14 μM, Vero E6 cells): 820470664.5 | Copy number of virus genome ([1]; 0.41 μM, Vero E6 cells): 363337006 | Copy number of virus genome ([1]; 1.23 μM, Vero E6 cells): 76022948.5 | Copy number of virus genome ([1]; 3.70 μM, Vero E6 cells): 21027512.5 | Copy number of virus genome ([1]; 11.11 μM, Vero E6 cells): 5389366.5 | Copy number of virus genome ([1]; 33.33 μM, Vero E6 cells): 1424671.5 | Copy number of virus genome ([1]; 100 μM, Vero E6 cells): 1220444.5 | Viral RNA load in the cells ([1]; Vero E6 cells, 48 hours after infection by SARS-CoV-2, FIG. 1(a)): can reduce the viral RNA load | Inhibition of replication of SARS-CoV-2 virus genome in the infected supernatant ([1]; at concentrations of 100 μM, 33 μM, 11.1 μM and 3.7 μM): could effectively inhibit the replication | Duration of common influenza (influenza): reduced the duration of common influenza
